Test results taken from US20070054868A1, “Synergistic polyphenol compounds, compositions thereof, and uses thereof” (The Trustees of Columbia University in the City of New York, priority 2005, published 2007).

Columns and labels:
[1] = test system: IGF-1 mRNA; assay: Semiquantitative RT-PCR analysis in SW837 cells; assay type: cell-based, human; conditions: 20 μg/mL, at 12 hours, additional decline at 24 and 48 hours
Procedure: (§1) RNA extraction and semiquantitative RT-PCR analysis were performed as described above in Example 7. Total RNA was isolated from SW837 human colon cancer cells using the Trizol reagent (Invitrogen) according to the manufacturer's instructions. cDNA was amplified from 1 μg of total RNA using Superscript one-step RT-PCR with the platinum Taq system (Invitrogen). Actin specific primer sets are described in Suzui, et al., Cancer Res., 62:3997-4006 (2002). […] Each amplification cycle consisted of 0.5 minutes at 94° C. for denaturation, 0.5 minutes at 55° C. for primer annealing, and 1 minute at 72° C. for extension. After PCR amplification, the fragments were analyzed by agarose gel electrophoresis and stained with ethidium bromide. The intensities of bands were quantified with NIH Image software version 1.62.

[2] = test system: MMP-9 mRNA; assay: Semiquantitative RT-PCR analysis in SW837 cells; assay type: cell-based, human; conditions: 20 μg/mL, at 12 hours, additional decrease at 24 to 48 hours
Procedure: as §1

[3] = test system: MMP-7 mRNA; assay: Semiquantitative RT-PCR analysis in SW837 cells; assay type: cell-based, human; conditions: 20 μg/mL, at 12 hours, additional decrease at 24 to 48 hours
Procedure: as §1

[4] = test system: IGFBP-3 mRNA; assay: Semiquantitative RT-PCR analysis in SW837 cells; assay type: cell-based, human; conditions: 20 μg/mL, at 3 to 12 hours, maximum at 6 hours
Procedure: as §1

[5] = test system: TGF-β2 mRNA; assay: Semiquantitative RT-PCR analysis in SW837 cells; assay type: cell-based, human; conditions: 20 μg/mL, at 3 hours
Procedure: as §1

[6] = test system: HepG2 human liver cancer cells; assay: MTT cell proliferation assay; assay type: cell-based
Procedure: Using the MTT cell proliferation assay described in Example 21, and substituting HepG2 human liver cancer cells in place of SW837 cells, the effects of EGCG (20 μg/mL), an illustrative Synergistic Polyphenol Compound, on the production of IGF-1, IGF-2 and IGFBP-3 was determined. […] Accordingly, the Synergistic Polyphenol Compounds are useful for treating or preventing liver cancer.

[7] = test system: EGFR, ERK1, ERK2, and AKT; assay: Phosphorylation of signaling proteins in HT29 cells; assay type: cell-based, human
Procedure: (§2) These effects were detected with as little as […] of EGCG, and within 5 minutes. Phosphorylation of EGFR, ERK1, ERK2, and AKT were suppressed in cells treated with methyl-β-cyclodextrin, which depletes plasma membrane cholesterol. […] In addition, the inhibitory effect of EGCG on phosphorylation of EGFR was not blocked by the addition of cholesterol on the growth medium. These findings provide evidence that EGCG can alter membrane domain organization in colon cancer cells ant that this is not due to cholesterol depletion. It was noted that pre-treatment of the cells with EGCG or Poly E inhibited the binding of Alexa 488-labeled EGF to the cell surface receptor EGFR.

[8] = test system: SW837; assay: Growth inhibition IC50 against colorectal cell lines; assay type: cell-based, human
Excerpt: Cell lines and cell culture. The Caco2, HCT116, HT29, SW480, and SW837 human colorectal cancer cell lines and the FHC normal human fetal colon cell line were obtained from American Type Culture Collection (Manassas, Va.). All cell lines were maintained in DF10 medium containing DMEM (Invitrogen, San Diego, Calif.) supplemented with 10% fetal bovine serum (Invitrogen). The FHC cell line was originally established from the colon of a human fetus at 13 weeks of gestation and has an epithelial morphology. Cells were cultured in an incubator with humidified air at 37° C. with 5% CO2. As an untreated solvent control, cells were treated with DMSO (Sigma Chemical Co., St. Louis, Mo.) at a final concentration of <0.1%. […] Cells to be tested against were plated onto 96-well plates (3×10^3 cells/well) and twenty-four hours later, the cells were treated with an illustrative Synergistic Polyphenol Composition, or one or more illustrative Synergistic Polyphenol Compounds. Neither the medium nor the test compounds were changed during this time period. The assay was done in triplicate. […] The medium and test compounds were not changed during this time period. As a control, the cells were treated with 0.1% DMSO. […] The numbers of cells in replica plates were then determined using a Coulter Counter (Beckman Coulter Co., Fullerton, Calif.) as described in Shimizu et al., Clin. Cancer Res. 2004: 10:1130-40.

[9] = test system: SW837 human colon cancer cells; assay: DNA fragmentation assay (Cell Death Detection ELISA), apoptosis; assay type: cell-based
Procedure: SW837 human colon cancer cells (5.0×10^5 cells/6-cm diameter dish) were treated with EGCG (1.0 or 20 μg/mL) for 48 or 96 hours, and samples were then prepared. Control cells were treated only with DMSO. The extent of DNA fragmentation at time 0 hours was set to 1 and increases expressed as fold activation.

[10] = test system: EGFR, HER2, HER3, Akt and ERK; assay: Western blot analysis in SW837 cells, total levels of the respective proteins; assay type: cell-based, human; conditions: 20 μg/mL, during the time course
Excerpt: Total cellular protein was extracted and equivalent amounts of protein can be determined by western blot analysis using the methods described in Suzui, et al., Cancer Res., 62:3997-4006 (2002). The primary antibodies for several proteins are described in Masuda et al., Clin Cancer Res., 7:4220-4229 (2001); Masuda et al., Clin Cancer Res., 9:3486-3491 (2003); and Shimizu et al., Clin Cancer Res., 11:2735-2746 (2005). The primary antibodies for HER3 (2F12) and COX-2 (PG27) were purchased from Upstate Cell Signaling Solutions (Charlottesville, Va.) and Oxford Biochemical Research (Oxford, Mich.), respectively. To examine the levels of expression of the phosphorylated (i.e. activated) form of the HER3 protein (p-HER3), cellular lysates (1 mg/mL) were incubated with 4 μg anti-HER3 antibody overnight at 4° C. with slow agitation, and immune complexes were then precipitated by adding protein A/G agarose (sc-2003, Santa Cruz Biotechnology, Santa Cruz, Calif.). After incubating for 2 hours at 4° C., the beads were washed with lysis buffer, and bound proteins were eluted into the sample buffer and subjected to western blot analysis, as described above. The p-HER3 protein was then detected by using an anti-phospho-tyrosine antibody (PY-20-HRP, BD Transduction Laboratories, San Diego, Calif.). An antibody to actin was used as a loading control. […]

[11] = biological target: T1, EGFR (Homo sapiens, UniProt P00533); assay: Binding of Alexa 488-labeled EGF to the cell surface receptor; conditions: HT29 cells pre-treated with test substance
T1 construct: endogenous in cells; host or cells: HT29 colon cancer cells
Procedure: as §2

Question: Which “level of IGF-1 mRNA” value [1] does the source give for (−)-epigallocatechin gallate here?
Answer: Its value is “decrease”.

Question: What about the “cellular level of MMP-9 mRNA” value [2] of the same substance?
Answer: The value was “marked decrease”.

Question: And the “cellular level of MMP-7 mRNA” value [3]?
Answer: The value was “marked decrease”.

Question: And the “levels of IGFBP-3 mRNA” value [4]?
Answer: The value was “increase”.

Question: And the “level of TGF-β2 mRNA” value [5]?
Answer: Its value is “transiently increased”.

Question: And the “IC50, growth of HepG2 cells” value [6]?
Answer: Its value is 21 µg/mL.

Question: What about the “inhibitory effect on phosphorylation of EGFR on addition of cholesterol to the growth medium” value [7] of the same substance?
Answer: Its value is “not blocked”.

Question: And the IC50 [8]?
Answer: The IC50 was 19.6 µg/mL.

Question: And the “IC50 concentration determined by MTT assays” value [8]?
Answer: The value was 20 µg/mL.

Question: And the “apoptosis (DNA fragmentation)” value ([9]; 1.0 μg/mL, 96 hours)?
Answer: Its value is “significant increase”.

Question: What about the “apoptosis (DNA fragmentation)” value ([9]; 20 μg/mL, 48 hours) of the same substance?
Answer: The value was “induction of apoptosis”.

Question: And the “total levels of the respective proteins” value [10]?
Answer: The value was “no significant changes”.

Question: What about the “binding of Alexa 488-labeled EGF to the cell surface receptor EGFR” value [11] of the same substance?
Answer: The value was “inhibited”.
